Experimental data: PMC8326471, “Synthesis and biological evaluation of new pyrazolebenzene-sulphonamides as potential anticancer agents and hCA I and II inhibitors” (Turkish Journal of Chemistry, 2021)

Key:
hCA II = hCA II (Homo sapiens, UniProt P00918); assay: Carbonic anhydrase enzyme assay (esterase activity), hCA II; type: biochemical
Source text: (§1) Human CA isoforms (hCAI and hCAII) were purified by the sepharose - 4B – L - tyrosine sulfanilamide affinity segregation method as reported. […] Inhibitory effects of the compounds were investigated by measuring the esterase activity according to Verpoorte et al. as described in previous studies [61 – 63].
(§2) Vmax, maximal velocity; VImax, maximal velocity of inhibitor; I, inhibitor; Ki, the inhibitor constant.

[1] = system: HSC-4 oral squamous cell carcinoma cells; assay: Cytotoxicity assay (MTT), HSC-4; type: cell-based; conditions: Homo sapiens, tumor cell line, 48 h
Description: (§3) The cytotoxicity of the compounds 4a - 4j were assayed towards human tumor cell lines [gingival carcinoma (Ca9–22), oral squamous cell carcinoma (HSC-2)] and human normal oral cells [gingival fibroblasts (HGF), and periodontal ligament fibroblasts (HPLF)] as described [42, 54 – 56]. In brief, all cells were cultured in Dulbecco’s modified eagle’s medium (DMEM) supplemented with 10% fetal bovine serum (FBS). The following concentrations of the compounds in dimethylsulfoxide (DMSO) were added to the medium and incubated at 37 ° C for 48 h: 4a - 4j ([…]), melphalan (3.12, 6.25, 12.5, 25. 50, 100, 200 and […]) and 5-FU ([…]). The media that contained the same concentration of DMSO ([…], 0.03125, 0.0625, 0.125, 0.25, 0.5 or 1%) were used as controls since DMSO above 0.25% is cytotoxic. The viable cell numbers were determined by the 3-(4,5-dimethylthiazol-2-yl)-2,5-diphenyltetrazolium bromide (MTT) assay. The CC50 values were determined from dose-response curves.
(§4) Cytotoxicity’s of the compounds 4a - 4j were evaluated towards Ca9–22, HSC-2, HSC-3, and HSC-4 human oral squamous cell carcinoma cell lines as tumor cell lines and HGF, HPLF, and HPC human normal oral cells as nontumor cells (Table 1) according to the procedure in the literature [42, 54 – 56]. 5-Fluorouracil (5-FU) was used as a reference anticancer drug.

[2] = Cytotoxicity assay, all non-tumor cells (mean); type: cell-based; conditions: human, normal oral cells HGF, HPLF and HPC (mean of the three), read-out: Non-tumor cell lines CC50 mean (D)
Description: as §3, §4

hCA I = hCA I (Homo sapiens, UniProt P00915); assay: Carbonic anhydrase enzyme assay (esterase activity), hCA I; type: biochemical
Source text: as §1, §2

[3] = system: human oral squamous cell carcinoma cell lines (Ca9-22, HSC-2, HSC-3, HSC-4); assay: Cytotoxicity assay, all tumor cell lines (mean, TS1, PSE1); type: cell-based; conditions: mean of Ca9-22, HSC-2, HSC-3, HSC-4, read-out: Tumor cell lines CC50 mean (B)
Description: as §3, §4
The tumor selectivity (TS1 and TS2) of each compound was calculated as described in previously reported literature procedures and these figures are presented in Table 1. Based on the TS1 values, 4f and 4g which have 2,5 and 2,4-dimethoxy substituents had the highest TS1 values in a series with 22.4 and 22.2, respectively. On the other hand, the 3,4,5-trimethoxy substituted compound 4i (TS1: 19.6) had the […] TS1 value. […] As expected, they were in accordance with the literature findings [16 – 18]. The second calculation (TS2) considered the differences of sensitivity between the malignant (Ca9–22) and non-malignant (HGF) cells derived from the same tissue (gingiva). According to TS2 values obtained, 4i (3,4,5-trimethoxy) had the highest TS2 value of 43.
The desired properties for a lead compound are being both markedly cytotoxic and selectively toxic for tumors. PSE1 reflects general cytotoxicity and selectivity potency of the compound towards all cells used, whereas PSE2 seems more specified since it was considered for the same origin cells. When the compounds tested towards OSCC lines were considered in terms of PSE2 values of the compounds. The best poly-methoxylated compounds were 4i (with 3,4,5-trimethoxy, PSE2 = 461.5) ˃ 4f (with 2,5-dimethoxy, PSE2 = 425.1) ˃ 4g (with 2,4-dimethoxy, PSE2 = 405.4) while the best mono-methoxylated derivative was 4b (with 4-methoxy, PSE2 = 205).

[4] = system: oral squamous cell carcinoma (HSC-2) cells; assay: Cytotoxicity assay (MTT), HSC-2; type: cell-based, human
Description: as §3, §4

[5] = Cytotoxicity assay (MTT), HPLF normal cells; type: cell-based; conditions: human, HPLF periodontal ligament fibroblasts (normal oral cells), non-tumor cells
Description: as §3, §4

[6] = Cytotoxicity assay (MTT), HGF normal cells; type: cell-based; conditions: human, HGF gingival fibroblasts (normal oral cells), non-tumor cells
Description: as §3, §4

[7] = system: HSC-3 oral squamous cell carcinoma cells; assay: Cytotoxicity assay (MTT), HSC-3; type: cell-based; conditions: Homo sapiens, tumor cell line, 48 h
Description: as §3, §4

[8] = Cytotoxicity assay (MTT), HPC normal cells; type: cell-based; conditions: human, HPC normal oral cells, non-tumor cells
Description: as §3, §4

[9] = system: gingival carcinoma (Ca9-22) cells; assay: Cytotoxicity assay (MTT), Ca9-22; type: cell-based, human
Description: as §3, §4

[10] = esterase activity, p-nitrophenyl acetate

Chain of hCA I (P00915 whole entry): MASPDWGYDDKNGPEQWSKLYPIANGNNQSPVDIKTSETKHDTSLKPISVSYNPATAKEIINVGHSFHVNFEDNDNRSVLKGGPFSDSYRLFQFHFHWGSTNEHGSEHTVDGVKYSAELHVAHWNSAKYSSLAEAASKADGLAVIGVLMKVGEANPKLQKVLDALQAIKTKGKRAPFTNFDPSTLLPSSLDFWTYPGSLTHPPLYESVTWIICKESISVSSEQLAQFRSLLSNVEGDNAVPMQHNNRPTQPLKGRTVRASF

Ki (hCA II; Lineweaver-Burk plot): 9.3 ± 1.9 µM
IC50 (hCA II; [10]): 20 µM
Ki (hCA I; Lineweaver-Burk plot): 29.8 ± 9.4 µM
IC50 (hCA I; [10]): 17.9 µM
melting point: 161 to 163 °C
SMILES: COc1cc(C2=NN(c3ccc(S(N)(=O)=O)cc3)C(c3ccc4c(c3)OCO4)C2)ccc1O (stereo not shown) [4j, 4-[5-(1,3-Benzodioxol-5-yl)-3-(4-hydroxy-3-methoxyphenyl)-4,5-dihydro-1H-pyrazol-1-yl]benzenesulphonamide]
CC50 [1]: 16.8 µM
CC50 at 48 h [2]: 65.2 µM
CC50 [3]: 21.7 µM
CC50 ([4]; Homo sapiens, HSC-2, tumor cell line, 48 h, MTT): 26.7 µM
times of potency compared to 5-FU, HSC-2 ([4]; cytotoxicity relative to 5-FU): 9.8
CC50 at 48 h [5]: 64.7 µM
CC50 at 48 h [6]: 76.7 µM
CC50 [7]: 26.3 µM
CC50 at 48 h [8]: 54.3 µM
CC50 ([9]; Homo sapiens, Ca9-22, tumor cell line, 48 h, MTT): 17 µM
times of potency compared to 5-FU, Ca9-22 ([9]; cytotoxicity relative to 5-FU): 1.3
